We go through 15 compounds from US11034685B2, “Aminopyridine derivatives as TAM family kinase inhibitors” (SignalChem Lifesciences Corporation, priority 2013, dated 2021).

What all share (assay type): biochemical
Assay [1] has as its target T1, Recombinant human Tyro3 (455-end) (Homo sapiens, UniProt Q06418).
T1 construct: GST (N); made in house; host or cells: Sf9 insect cells (baculovirus)
T1 sequence (Q06418 455-890 limits assumed): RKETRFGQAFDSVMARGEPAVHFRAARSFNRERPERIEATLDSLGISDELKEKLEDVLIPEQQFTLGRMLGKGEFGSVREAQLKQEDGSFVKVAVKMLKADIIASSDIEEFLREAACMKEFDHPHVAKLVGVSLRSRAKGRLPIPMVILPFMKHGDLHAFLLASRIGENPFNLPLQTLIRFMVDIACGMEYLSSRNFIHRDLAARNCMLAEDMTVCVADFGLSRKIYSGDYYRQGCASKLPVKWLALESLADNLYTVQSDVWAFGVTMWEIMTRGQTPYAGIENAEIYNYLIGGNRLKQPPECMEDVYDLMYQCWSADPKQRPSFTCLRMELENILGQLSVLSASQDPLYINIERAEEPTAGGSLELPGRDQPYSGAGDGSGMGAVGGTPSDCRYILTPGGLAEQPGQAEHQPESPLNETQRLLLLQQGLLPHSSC
Kind of assay: Kinase enzymatic activity assay ([33P]-ATP phosphate transfer), Tyro3. As to conditions: inhibitory activity on Tyro3; class symbols. As for the experimental part: (§1) Preparation of Active Recombinant Kinase Proteins:
(§2) Recombinant human Tyro3 (455-end, the gene accession number NM_006293), human Axl (473-end, the gene accession number NM_021913) and human Mer (578-872, the gene accession number NM_006343) were independently expressed by baculovirus in Sf9 insect cells using an N-terminal GST tag. The recombinant proteins were stored at −70° C. in a medium containing 50 mM Tris-HCl, pH 7.5, 150 mM NaCl, 10 mM glutathione, 0.1 mM EDTA, 0.25 mM DTT, 0.1 mM PMSF and 25% glycerol. The recombinant proteins were aliquoted into smaller quantities after centrifugation to avoid repeated handling and multiple freeze/thaw cycles for the most favorable performance.
(§3) Preparation of Assay Reagents:
(§4) Kinase Assay Buffer: This buffer solution consisted of the following components: 25 mM MOPS, pH 7.2, 12.5 mM β-glycerol-phosphate, 25 mM MgCl2, 5 mM EGTA, 2 mM EDTA and DTT 0.25 mM which was added prior to use.
(§5) Kinase Dilution Buffer: Kinase Assay Buffer was diluted at a 1:4 ratio (5× dilution) with distilled water.
(§6) [^33P]-ATP assay cocktail: In a designated radioactive working area, a 250 μM [^33P]-ATP assay cocktail was prepared by the addition of the following components: 150 μL of 10 mM ATP stock solution, 100 μL [^33P]-ATP (1 mci/100 μL), 5.75 mL of kinase assay buffer. This solution was stored in 1 mL aliquots at −20 OC.
(§7) ATP stock solution (10 mM): The ATP stock solution was prepared by dissolving 55 mg of ATP in 10 mL of kinase assay buffer. It was stored in 200 μL aliquots at −20° C.
(§8) Active Kinase Stock Solution: The active recombinant kinase protein (0.1 μg/μL) was diluted with Kinase Dilution Buffer and the activity was assayed using a serial dilution method. The specific activity is expressed in nmoL/min/mg.
(§9) Substrates: poly(4:1 glu:tyr) is the substrate used for each kinase Tyro3, Axl and Mer: The peptide substrate was dissolved in water to give the final concentration of 1 mg/mL.
(§10) Test compound solution: Test compound was dissolved in DMSO to obtain a 10 mM solution. The assay solution was prepared by adding 5 μL of this solution to […] of 10% DMSO/water to obtain the final concentration of 50 μM.
(§11) The enzymatic activity of all three kinases was determined as follows. Using a 96-well plate, the wells were divided into three categories: Blank wells, […] and Test wells. In Test wells, 5 μL of the test compound solution and 5 μL of the substrate solution were added. In Control wells, 5 μL of 10% DMSO/water and 5 μL of the substrate solution were added. In Blank wells, 10 μL of 10% DMSO/water was added. To each well was added 10 μL of Active Kinase Stock Solution to make up the volume in each well to 20 μL. All test samples, controls and blanks were run in duplicate. The reaction was initiated by the addition of 5 μL of [^33P]-ATP assay cocktail, bringing the final volume up to 25 μL in every well. The mixture was incubated at room temperature for 30 minutes. The reaction was terminated by transferring 10 μL of the reaction mixture into a Millipore MultiScreen filter plate (cat. number MSPHN6B50). The filter plate was washed in a 1% phosphoric acid solution with constant gentle shaking for 15 minutes and this step was repeated once. After the plate was dried in air, scintillation fluid was added to each well and the radioactivity in each well in CPM was counted by a Microbeta TriLux. The corrected CPM in each test well was determined by subtracting the average value of Blank well values. Percentage of inhibition of the kinase enzymatic activity by the test compound was determined using the following formula: […]
(§12) The IC50 values were determined in a similar way following a serial dilution of the test compound. The percentage of inhibition at each concentration was calculated following the above formula. The IC50 was estimated from the curve of % Inhibition against Concentration in log unit using Prism 5, version 5.01.

The target of the next assay is T2, human Axl (473-end) (Homo sapiens, UniProt P30530).
T2 construct: GST (N); made in house; host or cells: Sf9 insect cells (baculovirus)
T2 sequence (P30530 473-894 limits assumed): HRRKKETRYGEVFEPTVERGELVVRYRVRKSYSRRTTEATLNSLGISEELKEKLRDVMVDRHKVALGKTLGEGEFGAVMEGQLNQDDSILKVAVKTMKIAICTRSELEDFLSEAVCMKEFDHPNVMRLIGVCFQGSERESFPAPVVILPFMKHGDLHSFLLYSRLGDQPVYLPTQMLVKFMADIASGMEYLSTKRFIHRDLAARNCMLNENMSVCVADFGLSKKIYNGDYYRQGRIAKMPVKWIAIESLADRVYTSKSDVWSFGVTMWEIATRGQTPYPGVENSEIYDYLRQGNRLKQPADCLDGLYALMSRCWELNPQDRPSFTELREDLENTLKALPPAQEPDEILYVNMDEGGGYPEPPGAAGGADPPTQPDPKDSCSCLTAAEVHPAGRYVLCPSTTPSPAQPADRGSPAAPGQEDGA
Kind of assay: Kinase enzymatic activity assay ([33P]-ATP phosphate transfer), Axl. Conditions: inhibitory activity on Axl; class symbols. As for the experimental part: as §1, §2, §3, §4, §5, §6, §7, §8, §9, §10, §11, §12

In a further assay the target is T3, human Mer (578-872) (Homo sapiens, UniProt Q12866).
T3 construct: GST (N); made in house; host or cells: Sf9 insect cells (baculovirus)
T3 sequence (Q12866 578-872): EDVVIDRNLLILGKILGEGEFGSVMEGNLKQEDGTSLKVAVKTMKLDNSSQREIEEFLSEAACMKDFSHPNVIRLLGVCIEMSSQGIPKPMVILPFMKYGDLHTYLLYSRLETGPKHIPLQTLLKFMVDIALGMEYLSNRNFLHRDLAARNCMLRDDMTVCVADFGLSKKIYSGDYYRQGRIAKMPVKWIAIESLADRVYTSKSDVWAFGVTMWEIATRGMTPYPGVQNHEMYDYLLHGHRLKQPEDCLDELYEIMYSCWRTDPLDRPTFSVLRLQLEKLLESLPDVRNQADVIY
Put plainly: Kinase enzymatic activity assay ([33P]-ATP phosphate transfer), Mer. As to conditions: inhibitory activity on Mer; class symbols. As to the method: as §1, §2, §3, §4, §5, §6, §7, §8, §9, §10, §11, §12

For `CC(=O)N1CCC(n2cc(-c3cnc(N)c(-c4ncc(-c5ccc(Cl)cc5)o4)c3)cn2)CC1` [1-(4-(4-(6-amino-5-(5-(4-chlorophenyl)oxazol-2-yl)pyridin-3-yl)-1H-pyrazol-1-yl)piperidin-1-yl)ethanone], the IC50 (in assay [1]; at human Axl (473-end); against human Mer (578-872)) was over 10000 nM throughout.

Take `CCCCCCCCCCCCN1CCC(n2cc(-c3cnc(N)c(-c4nc(-c5c(Cl)cccc5Cl)no4)c3)cn2)CC1` [3-(3-(2,6-dichlorophenyl)-1,2,4-oxadiazol-5-yl)-5-(1-(1-dodecylpiperidin-4-yl)-1H-pyrazol-4-yl)pyridin-2-amine]: the IC50 (in general, the concentration at which inhibition is half-maximal) is under 500 nM in assay [1], 1000 to 10000 nM against human Axl (473-end) and under 500 nM against human Mer (578-872).

For `CCN1CCC(n2cc(-c3cnc(N)c(-c4nc(-c5c(Cl)cccc5Cl)no4)c3)cn2)CC1` [3-(3-(2,6-dichlorophenyl)-1,2,4-oxadiazol-5-yl)-5-(1-(1-ethylpiperidin-4-yl)-1H-pyrazol-4-yl)pyridin-2-amine], the IC50 (in assay [1]; against human Axl (473-end); against human Mer (578-872)) was under 500 nM each time.

Consider `CN1CCC(n2cc(-c3cnc(N)c(-c4nc(-c5c(Cl)cccc5Cl)no4)c3)cn2)CC1` [3-(3-(2,6-dichlorophenyl)-1,2,4-oxadiazol-5-yl)-5-(1-(1-methylpiperidin-4-yl)-1H-pyrazol-4-yl)pyridin-2-amine], for which the IC50 (in assay [1]; against human Axl (473-end); against human Mer (578-872)) was under 500 nM throughout.

For the compound `Nc1ncc(-c2cnn(C3CCNCC3)c2)cc1-c1nc(-c2c(Cl)cccc2Cl)no1` [3-(3-(2,6-dichlorophenyl)-1,2,4-oxadiazol-5-yl)-5-(1-(piperidin-4-yl)-1H-pyrazol-4-yl)pyridin-2-amine], the IC50 (in assay [1]; on human Axl (473-end); against human Mer (578-872)) was under 500 nM throughout.

For `Nc1ncc(-c2cnn(C3CCOCC3)c2)cc1-c1nc(-c2c(Cl)cccc2Cl)no1` [3-(3-(2,6-dichlorophenyl)-1,2,4-oxadiazol-5-yl)-5-(1-(tetrahydro-2H-pyran-4-yl)-1H-pyrazol-4-yl)pyridin-2-amine], the results for the IC50 (in assay [1]; on human Axl (473-end); against human Mer (578-872)) were under 500 nM, 1000 to 10000 nM and 1000 to 10000 nM, respectively.

For the compound `Nc1ncc(-c2cnn(C3CCNCC3)c2)cc1-c1nc(-c2ccccc2)no1` [3-(3-phenyl-1,2,4-oxadiazol-5-yl)-5-(1-(piperidin-4-yl)-1H-pyrazol-4-yl)pyridin-2-amine], the concentration for half-maximal inhibition (IC50) (in assay [1]; at human Axl (473-end); at human Mer (578-872)) was under 500 nM each time.

With `Nc1ncc(-c2cnn(C3CCOCC3)c2)cc1-c1nc(-c2ccccc2)no1` [3-(3-phenyl-1,2,4-oxadiazol-5-yl)-5-(1-(tetrahydro-2H-pyran-4-yl)-1H-pyrazol-4-yl)pyridin-2-amine], the IC50 (in assay [1]; on human Axl (473-end); against human Mer (578-872)) was over 10000 nM in each case.

For the compound `Nc1ncc(-c2cn[nH]c2)cc1-c1nc(-c2ccccc2)no1` [3-(3-phenyl-1,2,4-oxadiazol-5-yl)-5-(1H-pyrazol-4-yl)pyridin-2-amine], the IC50 in assay [1] lay within 1000 to 10000 nM; against human Axl (473-end) it was 500 to 1000 nM; against human Mer (578-872), 1000 to 10000 nM.

For `Nc1ncc(-c2cnn(C3CCNCC3)c2)cc1-c1noc(-c2cc(Cl)ccc2Cl)n1` [3-(5-(2,5-dichlorophenyl)-1,2,4-oxadiazol-3-yl)-5-(1-(piperidin-4-yl)-1H-pyrazol-4-yl)pyridin-2-amine], the figures for the IC50 (in assay [1]; against human Axl (473-end); against human Mer (578-872)) were under 500 nM, under 500 nM and 500 to 1000 nM, respectively.

For the compound `Nc1ncc(-c2cn[nH]c2)cc1-c1nnc(-c2cc(F)ccc2F)o1` [3-(5-(2,5-difluorophenyl)-1,3,4-oxadiazol-2-yl)-5-(1H-pyrazol-4-yl)pyridin-2-amine], the values for the 50% inhibitory concentration (IC50) (in assay [1]; against human Axl (473-end); against human Mer (578-872)) were under 500 nM, under 500 nM and 1000 to 10000 nM, respectively.

In the case of `Nc1ncc(-c2cnn(C3CCNCC3)c2)cc1-c1nnc(-c2c(Cl)ccc(F)c2Cl)o1` [3-(5-(2,6-dichloro-3-fluorophenyl)-1,3,4-oxadiazol-2-yl)-5-(1-(piperidin-4-yl)-1H-pyrazol-4-yl)pyridin-2-amine], the IC50 (in assay [1]; against human Axl (473-end); against human Mer (578-872)) was under 500 nM each time.

Consider `CCCCCCCCCCCCN1CCC(n2cc(-c3cnc(N)c(-c4nnc(-c5c(Cl)cccc5Cl)o4)c3)cn2)CC1` [3-(5-(2,6-dichlorophenyl)-1,3,4-oxadiazol-2-yl)-5-(1-(1-dodecylpiperidin-4-yl)-1H-pyrazol-4-yl)pyridin-2-amine], for which the IC50 in assay [1] fell in the range of 500 to 1000 nM; against human Axl (473-end) it was 1000 to 10000 nM; on human Mer (578-872), 1000 to 10000 nM.

On to `CCN1CCC(n2cc(-c3cnc(N)c(-c4nnc(-c5c(Cl)cccc5Cl)o4)c3)cn2)CC1` [3-(5-(2,6-dichlorophenyl)-1,3,4-oxadiazol-2-yl)-5-(1-(1-ethylpiperidin-4-yl)-1H-pyrazol-4-yl)pyridin-2-amine], for which the IC50 (in assay [1]; at human Axl (473-end); against human Mer (578-872)) was under 500 nM in each case.

On to `CN1CCC(n2cc(-c3cnc(N)c(-c4nnc(-c5c(Cl)cccc5Cl)o4)c3)cn2)CC1` [3-(5-(2,6-dichlorophenyl)-1,3,4-oxadiazol-2-yl)-5-(1-(1-methylpiperidin-4-yl)-1H-pyrazol-4-yl)pyridin-2-amine], for which the IC50 (in assay [1]; against human Axl (473-end); against human Mer (578-872)) was under 500 nM throughout.
